Measured values from article PMC11859928, “Design, Synthesis, and Antiproliferative Activity of Novel Indole/1,2,4-Triazole Hybrids as Tubulin Polymerization Inhibitors” (Pharmaceuticals, 2025).

Columns and labels:
Assay in all cases: NCI one-dose assay
[1] = system: NCI-H23; assay type: cell-based; conditions: Homo sapiens, NCI-H23, Non-small cell lung cancer, read-out: Cell growth inhibition %
[2] = system: UACC-257; assay type: cell-based; conditions: Homo sapiens, UACC-257, Melanoma, read-out: Cell growth inhibition %
[3] = system: CAKI-1; assay type: cell-based; conditions: Homo sapiens, CAKI-1, Renal cancer, read-out: Cell growth inhibition %
[4] = system: OVCAR-5; assay type: cell-based; conditions: Homo sapiens, OVCAR-5, Ovarian cancer, read-out: Cell growth inhibition %
[5] = system: SK-MEL-2; assay type: cell-based; conditions: Homo sapiens, SK-MEL-2, Melanoma, read-out: Cell growth inhibition %
[6] = system: OVCAR-4; assay type: cell-based; conditions: Homo sapiens, OVCAR-4, Ovarian cancer, read-out: Cell growth inhibition %
[7] = system: HL-60(TB); assay type: cell-based; conditions: Homo sapiens, Leukemia, read-out: Cell growth inhibition %
[8] = system: HOP-62; assay type: cell-based; conditions: Homo sapiens, HOP-62, Non-small cell lung cancer, read-out: Cell growth inhibition %
[9] = system: MCF7; assay type: cell-based; conditions: Homo sapiens, MCF7, Breast cancer, read-out: Cell growth inhibition %
[10] = system: TK-10; assay type: cell-based; conditions: Homo sapiens, TK-10, Renal cancer, read-out: Cell growth inhibition %
[11] = system: SK-MEL-28; assay type: cell-based; conditions: Homo sapiens, SK-MEL-28, Melanoma, read-out: Cell growth inhibition %
[12] = system: PC-3; assay type: cell-based; conditions: Homo sapiens, PC-3, Prostate cancer, read-out: Cell growth inhibition %
[13] = system: HCC-2998; assay type: cell-based; conditions: Homo sapiens, HCC-2998, Colon cancer, read-out: Cell growth inhibition %
[14] = system: T-47D; assay type: cell-based; conditions: Homo sapiens, T47D, Breast cancer, read-out: Cell growth inhibition %
[15] = system: NCI-H522; assay type: cell-based; conditions: Homo sapiens, NCI-H522, Non-small cell lung cancer, read-out: Cell growth inhibition %
[16] = system: DU-145; assay type: cell-based; conditions: Homo sapiens, DU-145, Prostate cancer, read-out: Cell growth inhibition %
[17] = system: K-562; assay type: cell-based; conditions: Homo sapiens, K562, K-562, Leukemia, read-out: Cell growth inhibition %
[18] = system: CCRF-CEM; assay type: cell-based; conditions: Homo sapiens, Leukemia, read-out: Cell growth inhibition %
[19] = system: SNB-75; assay type: cell-based; conditions: Homo sapiens, SNB-75, CNS cancer, read-out: Cell growth inhibition %
[20] = system: SNB-19; assay type: cell-based; conditions: Homo sapiens, SNB-19, CNS cancer, read-out: Cell growth inhibition %
[21] = system: OVCAR-3; assay type: cell-based; conditions: Homo sapiens, OVCAR-3, Ovarian cancer, read-out: Cell growth inhibition %
[22] = system: RPMI-8226; assay type: cell-based; conditions: Homo sapiens, RPMI-8226, Leukemia, read-out: Cell growth inhibition %
[23] = system: COLO 205; assay type: cell-based; conditions: Homo sapiens, COLO 205, Colon cancer, read-out: Cell growth inhibition %
[24] = system: NCI-H322M; assay type: cell-based; conditions: Homo sapiens, Non-small cell lung cancer, read-out: Cell growth inhibition %
[25] = system: SW-620; assay type: cell-based; conditions: Homo sapiens, SW-620, Colon cancer, read-out: Cell growth inhibition %
[26] = system: SN12C; assay type: cell-based; conditions: Homo sapiens, Renal cancer, read-out: Cell growth inhibition %
[27] = system: MALME-3M; assay type: cell-based; conditions: Homo sapiens, Melanoma, read-out: Cell growth inhibition %
[28] = system: NCI-H226; assay type: cell-based; conditions: Homo sapiens, NCI-H226, Non-small cell lung cancer, read-out: Cell growth inhibition %
[29] = system: ACHN; assay type: cell-based; conditions: Homo sapiens, Renal cancer, read-out: Cell growth inhibition %
[30] = system: KM12; assay type: cell-based; conditions: Homo sapiens, KM12, Colon cancer, read-out: Cell growth inhibition %
[31] = system: HCT-116; assay type: cell-based; conditions: Homo sapiens, HCT-116, Colon cancer, read-out: Cell growth inhibition %
[32] = system: U251; assay type: cell-based; conditions: Homo sapiens, U-251, U251, CNS cancer, read-out: Cell growth inhibition %
[33] = system: 786-0; assay type: cell-based, human; conditions: Homo sapiens, 786-0, 786-0, Renal cancer, read-out: Cell growth inhibition %
[34] = system: UO-31; assay type: cell-based, human; conditions: Homo sapiens, UO-31, UO-31, Renal cancer, read-out: Cell growth inhibition %
[35] = system: HOP-92; assay type: cell-based, human; conditions: Homo sapiens, HOP-92, HOP-92, Non-small cell lung cancer, read-out: Cell growth inhibition %

SMILES	inhibition at 10 µM [1]	inhibition at 10 µM [2]	inhibition at 10 µM [3]	inhibition at 10 µM [4]	inhibition at 10 µM [5]	inhibition at 10 µM [6]	inhibition at 10 µM [7]	inhibition at 10 µM [8]	inhibition at 10 µM [9]	inhibition at 10 µM [10]	inhibition at 10 µM [11]	inhibition at 10 µM [12]	inhibition at 10 µM [13]	inhibition at 10 µM [14]	inhibition at 10 µM [15]	inhibition at 10 µM [16]	inhibition at 10 µM [17]	inhibition at 10 µM [18]	inhibition at 10 µM [19]	inhibition at 10 µM [20]	other results
C=CCn1c(SC/C(=N\O)c2ccc(Cl)cc2)nnc1-c1c[nH]c2ccccc12 [Compound 7e, (Z)-2-((4-allyl-5-(1H-indol-3-yl)-4H-1,2,4-triazol-3-yl)thio)-1-(4-chlorophenyl) Ethanone Oxime]	17.4%	6.8%	25.4%	-2.62%	3.64%	19.9%	35%	7.33%	13.3%	1.28%	0.08%	24.4%	8.7%	46.5%	19.5%	5.88%	39.3%	17.2%	4.75%	12.6%	inhibition at 10 µM [21]: -7.49%; inhibition at 10 µM [22]: 29.7%; inhibition at 10 µM [23]: 0.1%; inhibition at 10 µM [24]: 11.9%; inhibition at 10 µM [25]: 9.5%; inhibition at 10 µM [26]: 14.9%; inhibition at 10 µM [27]: 15.6%; inhibition at 10 µM [28]: 30.4%; inhibition at 10 µM [29]: 10.2%; inhibition at 10 µM [30]: 4.48%; inhibition at 10 µM [31]: 36.1%; inhibition at 10 µM [32]: 1.78%; inhibition at 10 µM [33]: 11.1%; inhibition at 10 µM [34]: 39.5%; inhibition at 10 µM [35]: 26.5%
O/N=C(\CSc1nnc(-c2c[nH]c3ccccc23)n1-c1ccccc1)c1ccccc1 [Compound 7f, (Z)-2-((5-(1H-Indol-3-yl)-4-phenyl-4H-1,2,4-triazol-3-yl)thio)-1-phenylethanone Oxime]	45.8%	20.1%	48.9%	14.3%	50.8%	62.2%	75.3%	15.4%	58.9%	34%	45.5%	75.9%	43.3%	80.2%	46.2%	40.2%	67.6%	59%	23.8%	48.5%	inhibition at 10 µM [21]: 45%; inhibition at 10 µM [22]: 68.1%; inhibition at 10 µM [23]: 47.1%; inhibition at 10 µM [24]: 35%; inhibition at 10 µM [25]: 47.2%; inhibition at 10 µM [26]: 42.6%; inhibition at 10 µM [27]: 23.9%; inhibition at 10 µM [28]: 56.7%; inhibition at 10 µM [29]: 58.4%; inhibition at 10 µM [30]: 59.9%; inhibition at 10 µM [31]: 60%; inhibition at 10 µM [32]: 46.2%; inhibition at 10 µM [33]: 17.9%; inhibition at 10 µM [34]: 71.6%; inhibition at 10 µM [35]: 82.7%
